Source: patent publication US9326506B2, “Preparation method, agricultural composition and applications of natural brassinolide analogs” (CHENGDU NEWSUN CROPSCIENCE CO., LTD, priority 2012, dated 2016)

Test system: rice
Assay: Low temperature assay on rice seedlings
Assay type: in vivo
Description: According to a low temperature assay, we measured parameters including plant height, number of leaf, area of leaf, number of tiller, weight of root at low temperature to completely determine effects of the natural brassinolide analogues on the resistance to low temperature of a plant.
The natural brassinolide analogues, BR1, BR2, BR3, BR4, BR5 and BR6, used herein, were those prepared by the method of Example 1. Respectively the analogues were dissolved into 95% (V/V) ethanol solution, and then diluted with pure water to 1 mg/L, 0.1 mg/L, 0.01 mg/L, 0.001 mg/L and 0.0001 mg/L. In addition, pure water was used as a control.
After rice seeds were disinfected by using 5% sodium hypochlorite solution treatment, they were rinsed with distilled water until their pH>7, placed into a petri dish in a dark incubator, and cultured by using water at 30° C.±2° C. for 9 days. Then respectively the nine-day-old etiolated seedlings of rice were immersed in the above solutions containing different concentrations of the natural brassinolide analogues or pure water, and cultured at the temperature of 1° C., 2° C., 3° C., 4° C. and 5° C. for 24 hr. The parameters including plant height, area of leaf and weight of root after 3, 6, 9 and 12 days and number of leaf and number of tiller after 12 days were measured.

For `CC(C)(O)CC[C@@H](O)[C@](C)(O)[C@H]1CC[C@@]2(O)[C@@H]3CC(=O)[C@@H]4C[C@@H](O)[C@@H](O)C[C@]4(C)[C@H]3CC[C@]12C` [BR6], which Area of leaf (0.001 mg/l, 2 °C, 6 days) is on record?
Its Area of leaf is 11.8 cm^2.

And the Height (0.001 mg/l, 2 °C, 6 days)?
The Height was 7.1 cm.

And the Weight of root (0.001 mg/l, 2 °C, 6 days)?
The Weight of root was 3.0 g.

And the Area of leaf (0.001 mg/l, 2 °C, 9 days)?
The Area of leaf was 12.7 cm^2.

And the Height (0.001 mg/l, 2 °C, 9 days)?
Its Height is 7.2 cm.

And the Weight of root (0.001 mg/l, 2 °C, 9 days)?
The Weight of root was 3.2 g.

What about the Area of leaf (0.001 mg/l, 2 °C, 12 days) of the same compound?
Its Area of leaf is 13.1 cm^2.

And the Height (0.001 mg/l, 2 °C, 12 days)?
Its Height is 7.3 cm.

And the Number of leaf (0.001 mg/l, 2 °C, 12 days)?
Its Number of leaf is 3.

What about the Number of tiller (0.001 mg/l, 2 °C, 12 days) of the same compound?
Its Number of tiller is 3.

And the Weight of root (0.001 mg/l, 2 °C, 12 days)?
The Weight of root was 3.9 g.

And the Area of leaf (0.001 mg/l, 3 °C, 3 days)?
Its Area of leaf is 10.4 cm^2.

And the Height (0.001 mg/l, 3 °C, 3 days)?
The Height was 7 cm.

And the Weight of root (0.001 mg/l, 3 °C, 3 days)?
Its Weight of root is 2.5 g.

And the Area of leaf (0.001 mg/l, 3 °C, 6 days)?
The Area of leaf was 12 cm^2.

What about the Height (0.001 mg/l, 3 °C, 6 days) of the same compound?
Its Height is 7.1 cm.

And the Weight of root (0.001 mg/l, 3 °C, 6 days)?
Its Weight of root is 2.6 g.

And the Area of leaf (0.001 mg/l, 3 °C, 9 days)?
Its Area of leaf is 12.6 cm^2.

What about the Height (0.001 mg/l, 3 °C, 9 days) of the same compound?
The Height was 7.4 cm.

And the Weight of root (0.001 mg/l, 3 °C, 9 days)?
The Weight of root was 2.9 g.

What about the Area of leaf (0.001 mg/l, 3 °C, 12 days) of the same compound?
The Area of leaf was 13.2 cm^2.

What about the Height (0.001 mg/l, 3 °C, 12 days) of the same compound?
The Height was 7.4 cm.

What about the Number of leaf (0.001 mg/l, 3 °C, 12 days) of the same compound?
Its Number of leaf is 3.

And the Number of tiller (0.001 mg/l, 3 °C, 12 days)?
The Number of tiller was 2.

What about the Weight of root (0.001 mg/l, 3 °C, 12 days) of the same compound?
The Weight of root was 2.9 g.

And the Area of leaf (0.001 mg/l, 4 °C, 3 days)?
The Area of leaf was 10.6 cm^2.

What about the Height (0.001 mg/l, 4 °C, 3 days) of the same compound?
The Height was 7.1 cm.

What about the Weight of root (0.001 mg/l, 4 °C, 3 days) of the same compound?
Its Weight of root is 2.5 g.

What about the Area of leaf (0.001 mg/l, 4 °C, 6 days) of the same compound?
The Area of leaf was 12.4 cm^2.

And the Height (0.001 mg/l, 4 °C, 6 days)?
Its Height is 7.3 cm.

And the Weight of root (0.001 mg/l, 4 °C, 6 days)?
The Weight of root was 2.6 g.

What about the Area of leaf (0.001 mg/l, 4 °C, 9 days) of the same compound?
The Area of leaf was 13.1 cm^2.

And the Height (0.001 mg/l, 4 °C, 9 days)?
The Height was 7.5 cm.

What about the Weight of root (0.001 mg/l, 4 °C, 9 days) of the same compound?
Its Weight of root is 2.9 g.

What about the Area of leaf (0.001 mg/l, 4 °C, 12 days) of the same compound?
The Area of leaf was 13.5 cm^2.

What about the Height (0.001 mg/l, 4 °C, 12 days) of the same compound?
The Height was 7.7 cm.

What about the Number of leaf (0.001 mg/l, 4 °C, 12 days) of the same compound?
Its Number of leaf is 3.

And the Number of tiller (0.001 mg/l, 4 °C, 12 days)?
The Number of tiller was 2.

And the Weight of root (0.001 mg/l, 4 °C, 12 days)?
The Weight of root was 2.9 g.

And the Area of leaf (0.001 mg/l, 5 °C, 3 days)?
The Area of leaf was 10.7 cm^2.

What about the Height (0.001 mg/l, 5 °C, 3 days) of the same compound?
The Height was 7.5 cm.

And the Weight of root (0.001 mg/l, 5 °C, 3 days)?
The Weight of root was 2.8 g.

And the Area of leaf (0.001 mg/l, 5 °C, 6 days)?
The Area of leaf was 14.6 cm^2.

What about the Height (0.001 mg/l, 5 °C, 6 days) of the same compound?
Its Height is 7.8 cm.

What about the Weight of root (0.001 mg/l, 5 °C, 6 days) of the same compound?
Its Weight of root is 2.7 g.

And the Area of leaf (0.001 mg/l, 5 °C, 9 days)?
Its Area of leaf is 16 cm^2.

And the Height (0.001 mg/l, 5 °C, 9 days)?
Its Height is 7.9 cm.

And the Weight of root (0.001 mg/l, 5 °C, 9 days)?
Its Weight of root is 3.0 g.

What about the Area of leaf (0.001 mg/l, 5 °C, 12 days) of the same compound?
Its Area of leaf is 17 cm^2.

What about the Height (0.001 mg/l, 5 °C, 12 days) of the same compound?
Its Height is 8.2 cm.

What about the Number of leaf (0.001 mg/l, 5 °C, 12 days) of the same compound?
The Number of leaf was 3.

And the Number of tiller (0.001 mg/l, 5 °C, 12 days)?
Its Number of tiller is 3.

And the Weight of root (0.001 mg/l, 5 °C, 12 days)?
Its Weight of root is 3.7 g.

What about the Area of leaf (0.01 mg/l, 1 °C, 3 days) of the same compound?
Its Area of leaf is 10 cm^2.

What about the Height (0.01 mg/l, 1 °C, 3 days) of the same compound?
The Height was 7.0 cm.

What about the Weight of root (0.01 mg/l, 1 °C, 3 days) of the same compound?
The Weight of root was 2.8 g.

And the Area of leaf (0.01 mg/l, 1 °C, 6 days)?
Its Area of leaf is 11.9 cm^2.

What about the Height (0.01 mg/l, 1 °C, 6 days) of the same compound?
The Height was 7.2 cm.

What about the Weight of root (0.01 mg/l, 1 °C, 6 days) of the same compound?
The Weight of root was 3.0 g.

And the Area of leaf (0.01 mg/l, 1 °C, 9 days)?
The Area of leaf was 12.9 cm^2.

What about the Height (0.01 mg/l, 1 °C, 9 days) of the same compound?
Its Height is 7.3 cm.

What about the Weight of root (0.01 mg/l, 1 °C, 9 days) of the same compound?
Its Weight of root is 3.4 g.

What about the Area of leaf (0.01 mg/l, 1 °C, 12 days) of the same compound?
The Area of leaf was 13.6 cm^2.

What about the Height (0.01 mg/l, 1 °C, 12 days) of the same compound?
The Height was 7.4 cm.

What about the Number of leaf (0.01 mg/l, 1 °C, 12 days) of the same compound?
Its Number of leaf is 3.

And the Number of tiller (0.01 mg/l, 1 °C, 12 days)?
Its Number of tiller is 3.

And the Weight of root (0.01 mg/l, 1 °C, 12 days)?
Its Weight of root is 3.9 g.

And the Area of leaf (0.01 mg/l, 2 °C, 3 days)?
The Area of leaf was 10.6 cm^2.

What about the Height (0.01 mg/l, 2 °C, 3 days) of the same compound?
The Height was 7.0 cm.

And the Weight of root (0.01 mg/l, 2 °C, 3 days)?
The Weight of root was 2.8 g.

What about the Area of leaf (0.01 mg/l, 2 °C, 6 days) of the same compound?
The Area of leaf was 11.8 cm^2.

And the Height (0.01 mg/l, 2 °C, 6 days)?
The Height was 7.2 cm.

And the Weight of root (0.01 mg/l, 2 °C, 6 days)?
Its Weight of root is 3.0 g.

And the Area of leaf (0.01 mg/l, 2 °C, 9 days)?
Its Area of leaf is 12.8 cm^2.

And the Height (0.01 mg/l, 2 °C, 9 days)?
Its Height is 7.3 cm.

And the Weight of root (0.01 mg/l, 2 °C, 9 days)?
Its Weight of root is 3.1 g.

And the Area of leaf (0.01 mg/l, 2 °C, 12 days)?
The Area of leaf was 13.4 cm^2.

And the Height (0.01 mg/l, 2 °C, 12 days)?
The Height was 7.5 cm.

What about the Number of leaf (0.01 mg/l, 2 °C, 12 days) of the same compound?
Its Number of leaf is 3.

What about the Number of tiller (0.01 mg/l, 2 °C, 12 days) of the same compound?
The Number of tiller was 3.

And the Weight of root (0.01 mg/l, 2 °C, 12 days)?
Its Weight of root is 3.2 g.

What about the Area of leaf (0.01 mg/l, 3 °C, 3 days) of the same compound?
The Area of leaf was 10.4 cm^2.

What about the Height (0.01 mg/l, 3 °C, 3 days) of the same compound?
Its Height is 7 cm.

What about the Weight of root (0.01 mg/l, 3 °C, 3 days) of the same compound?
The Weight of root was 2.5 g.

What about the Area of leaf (0.01 mg/l, 3 °C, 6 days) of the same compound?
The Area of leaf was 12 cm^2.

And the Height (0.01 mg/l, 3 °C, 6 days)?
Its Height is 7.2 cm.

And the Weight of root (0.01 mg/l, 3 °C, 6 days)?
Its Weight of root is 2.6 g.

And the Area of leaf (0.01 mg/l, 3 °C, 9 days)?
Its Area of leaf is 12.6 cm^2.
